According to patent US20050192314A1, “Urea derivatives as C-kit modulators” (Ambit Biosciences Corporation, priority 2003, published 2005):

Molecular target: T1, KIT(DKIN) (Homo sapiens, UniProt P10721)
T1 construct: KIT(DKIN); made in house
Assay: Binding constant (Kd) measurement, phage-displayed kinase competition binding assay: KIT(DKIN)
Excerpt: The term “ND” represents non-determined values.

T1 sequence (P10721 589-937 limits assumed): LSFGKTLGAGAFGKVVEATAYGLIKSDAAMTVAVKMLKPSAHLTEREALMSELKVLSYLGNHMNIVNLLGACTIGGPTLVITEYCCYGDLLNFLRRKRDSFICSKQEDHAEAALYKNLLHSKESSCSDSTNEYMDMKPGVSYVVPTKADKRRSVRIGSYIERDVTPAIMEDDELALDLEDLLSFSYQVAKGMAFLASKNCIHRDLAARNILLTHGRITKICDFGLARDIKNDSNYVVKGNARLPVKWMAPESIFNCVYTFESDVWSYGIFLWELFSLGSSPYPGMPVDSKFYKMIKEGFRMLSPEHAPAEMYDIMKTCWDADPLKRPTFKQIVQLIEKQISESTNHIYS

| Kd [nM] | SMILES |
| --- | --- |
| 100 to 1000 | CC(C)(C)c1cc(NC(=O)Nc2ccccc2)no1 [Compound A2] |
| < 100 | CC(C)(C)c1cc(NC(=O)Nc2ccc(CCc3ccc(N)cc3)cc2)no1 [Compound A3] |
| 1000 to 10000 | Cc1c(Cl)cccc1NC(=O)Nc1cc(C(C)(C)C)on1 [Compound A5] |
| 1000 to 10000 | CC(C)(C)c1cc(NC(=O)Nc2ccc(Cl)cc2Cl)no1 [Compound A7] |
| 100 to 1000 | CC(C)(C)c1cc(NC(=O)Nc2ccc(CCc3ccccc3)cc2)no1 [Compound A15] |
| 1000 to 10000 | CC(C)(C)c1cc(NC(=O)Nc2ccc3cc4ccccc4cc3c2)no1 [Compound A18] |
| 1000 to 10000 | CC(C)(CO)c1cc(NC(=O)Nc2ccc(Cl)cc2)on1 [Compound A22] |
| 100 to 1000 | CC(C)(C)c1cc(NC(=O)Nc2ccc(-c3ccccc3)cc2)no1 [Compound A23] |
| 100 to 1000 | CC(C)(C)c1cc(NC(=O)Nc2ccc(Oc3ccccc3)cc2)no1 [Compound A24] |
| 100 to 1000 | CC(C)(C)c1cc(NC(=O)Nc2ccc(Cl)cc2)no1 [Compound A27] |
| 1000 to 10000 | COc1ccc(NC(=O)Nc2cc(C(C)(C)C)on2)cc1 [Compound A29] |
| 100 to 1000 | COc1ccc(NC(=O)Nc2cc(C(C)(C)C)no2)cc1 [Compound A30] |
| 100 to 1000 | CC(C)(C)c1cc(NC(=O)Nc2ccc(Cl)cc2)on1 [Compound A32] |
| 100 to 1000 | Cc1ccc(NC(=O)Nc2cc(C(C)(C)C)on2)cc1 [Compound A33] |
| 100 to 1000 | CSc1ccc(NC(=O)Nc2cc(C(C)(C)C)on2)cc1 [Compound A37] |
| 100 to 1000 | CSc1ccc(NC(=O)Nc2cc(C(C)(C)C)no2)cc1 [Compound A39] |
| 1000 to 10000 | CC(C)(C)c1cc(NC(=O)Nc2ccc(F)cc2)no1 [Compound A47] |
| 100 to 1000 | COc1cc(NC(=O)Nc2cc(C(C)(C)C)no2)cc(OC)c1OC [Compound A49] |
| 1000 to 10000 | CC(C)(C)c1cc(NC(=O)Nc2ccncc2)no1 [Compound A53] |
| 1000 to 10000 | COc1cccc(CNC(=O)Nc2cc(C(C)(C)C)on2)c1 [Compound B3] |
| 1000 to 10000 | CC(C)(C)c1cc(NC(=O)Nc2ccc(N)cc2)no1 [Compound C1, 1-(5-tert-butylisoxazol-3-yl)-3-(4-aminophenyl)urea] |
| > 10000 | Cn1nc(C(C)(C)C)cc1NC(=O)Nc1cccc([N+](=O)[O-])c1 [Compound D21] |

| Kd [nM] | SMILES |
| --- | --- |
| 1000 to 10000 | CC(C)(C)c1cc(N2CCCN(c3ccc(OCc4ccccc4)cc3)C2=O)on1 [Compound E2] |
| 100 to 1000 | CC(C)(CO)c1cc(NC(=O)Nc2ccc(OCc3ccccc3)cc2)on1 [Compound G2] |
| 100 to 1000 | CC(C)(C)c1cc(NC(=O)Nc2ccc(OCc3ccc4ccccc4c3)cc2)no1 [Compound G3] |
| 100 to 1000 | CC(C)(C)c1cc(NC(=O)Nc2ccc(OCc3ccccc3C(F)(F)F)cc2)no1 [Compound G4] |
| 100 to 1000 | CC(C)(C)c1cc(NC(=O)Nc2ccc(OCc3ccc(OC(F)(F)F)cc3)cc2)no1 [Compound G5] |
| 100 to 1000 | CC(C)(C)c1cc(NC(=O)Nc2ccc(OCc3ccc(C(F)(F)F)cc3)cc2)no1 [Compound G6] |
| 100 to 1000 | COC(=O)c1cccc(COc2ccc(NC(=O)Nc3cc(C(C)(C)C)on3)cc2)c1 [Compound G7] |
| 1000 to 10000 | CC(C)(C)c1cc(NC(=O)Nc2ccc(OCc3ccccc3-c3ccccc3)cc2)no1 [Compound G8] |
| 100 to 1000 | CC(C)(C)c1cc(NC(=O)Nc2ccc(OCc3ccc(C(=O)c4ccccc4)cc3)cc2)no1 [Compound G9] |
| < 100 | CC(C)(C)c1cc(NC(=O)Nc2ccc(OCc3ccccc3Cl)cc2)no1 [Compound G10] |
| 100 to 1000 | CC(C)(C)c1cc(NC(=O)Nc2ccc(OCc3cccc(F)c3)cc2)no1 [Compound G14] |
| 100 to 1000 | Cc1ccc(COc2ccc(NC(=O)Nc3cc(C(C)(C)C)on3)cc2)cc1 [Compound G15] |
| 100 to 1000 | CC(C)(C)c1cc(NC(=O)Nc2ccc(OCc3ccc(F)cc3Cl)cc2)no1 [Compound G18] |
| 100 to 1000 | CC(C)(C)c1cc(NC(=O)Nc2ccc(OCc3c(Cl)cccc3Cl)cc2)no1 [Compound G19] |
| < 100 | CCOc1ccc(NC(=O)Nc2cc(C(C)(C)C)on2)cc1 [Compound G20] |
| < 100 | CC(C)(C)c1cc(NC(=O)Nc2ccc(OCc3c(F)cccc3F)cc2)no1 [Compound G21] |
| < 100 | CC(C)(C)c1cc(NC(=O)Nc2ccc(OCCc3ccncc3)cc2)no1 [Compound G22] |
| 100 to 1000 | CC(C)(C)c1cc(NC(=O)Nc2ccc(OCCc3ccc(F)cc3)cc2)no1 [Compound G24] |
| 100 to 1000 | CC(C)(C)c1cc(NC(=O)Nc2ccc(OCCc3ccccc3F)cc2)no1 [Compound G25] |
| 100 to 1000 | CC(C)(C)c1cc(NC(=O)Nc2ccc(OC/C=C/c3ccccc3Cl)cc2)no1 [Compound G26] |
| 100 to 1000 | CC(C)(C)c1cc(NC(=O)Nc2ccc(OCCc3ccccn3)cc2)no1 [Compound G27] |
| 100 to 1000 | CC(C)(C)c1cc(NC(=O)Nc2ccc(OCC(O)CO)cc2)no1 (stereo not drawn) [Compound G28] |

| Kd [nM] | SMILES |
| --- | --- |
| 100 to 1000 | CC(C)(C)c1cc(NC(=O)Nc2ccc(OCc3ccccc3)cc2)on1 [Compound G30] |
| < 100 | CC(C)(C)c1cc(NC(=O)Nc2ccc(OCc3ccccc3)cc2)no1 [Compound G31] |
| < 100 | C=CCOc1ccc(NC(=O)Nc2cc(C(C)(C)C)no2)cc1 [Compound G32] |
| < 100 | CC(C)Oc1ccc(NC(=O)Nc2cc(C(C)(C)C)no2)cc1 [Compound G33] |
| < 100 | CC(C)(C)c1cc(NC(=O)Nc2ccc(OCc3ccc(Cl)cc3)cc2)no1 [Compound G34] |
| < 100 | CC(C)(C)c1cc(NC(=O)Nc2ccc(OCc3ccc(F)cc3)cc2)no1 [Compound G35] |
| 100 to 1000 | Cc1ccc(-n2nc(C(C)(C)C)cc2NC(=O)Nc2ccc(OCCN3CCOC(CO)C3)c3ccccc23)cc1 (stereo not drawn) [Compound G38] |
| < 100 | CC(C)(C)c1cc(NC(=O)Nc2ccc(OCC3CCC3)cc2)no1 [Compound G39] |
| 1000 to 10000 | CC(C)(C)c1cc(NC(=O)Nc2ccc(OCCN3CCOCC3)cc2)no1 [Compound G40] |
| 1000 to 10000 | CC1CN(CCOc2ccc(NC(=O)Nc3cc(C(C)(C)C)on3)cc2)CC(C)O1 (stereo not drawn) [Compound G42] |
| > 10000 | CC1CCCN(CCOc2ccc(NC(=O)Nc3cc(C(C)(C)C)on3)cc2)C1 (stereo not drawn) [Compound G44] |
| > 10000 | CC1CN(CCOc2ccc(NC(=O)Nc3cc(C(C)(C)C)on3)cc2)CCN1 (stereo not drawn) [Compound G46] |
| > 10000 | CC(C)(C)c1cc(NC(=O)Nc2ccc(OCCN3CCC(O)CC3)cc2)no1 [Compound G48] |
| > 10000 | CC(C)(C)c1cc(NC(=O)Nc2ccc(OCCN3CCCCC3)cc2)no1 [Compound G50] |
| 100 to 1000 | Cc1nccn1CCOc1ccc(NC(=O)Nc2cc(C(C)(C)C)on2)cc1 [Compound G51] |
| > 10000 | CC(C)(C)c1cc(NC(=O)Nc2ccc(OCCN3CCNCC3)cc2)no1 [Compound G52] |
| 1000 to 10000 | CC(C)(C)c1cc(NC(=O)Nc2ccc(OCCN3CCSCC3)cc2)no1 [Compound G53] |
| 100 to 1000 | CC(C)(C)c1cc(NC(=O)Nc2ccc(OCc3ccc4nonc4c3)cc2)no1 [Compound G55] |
| 100 to 1000 | CC(C)(C)c1cc(NC(=O)Nc2ccc(OCc3ccc(-c4ccccc4)cc3)cc2)no1 [Compound G56] |
| 100 to 1000 | Cn1nc(C(C)(C)C)cc1NC(=O)Nc1ccc(OCc2ccccc2)cc1 [Compound H2] |
| > 10000 | Cc1ccc(-n2nc(C(C)(C)C)cc2NC(=O)Nc2ccc(OCc3ccccc3)cc2)cc1 [Compound H5] |
| > 10000 | Cn1nc(C2CC2)cc1NC(=O)Nc1ccc(OCc2ccccc2)cc1 [Compound H7] |

| Kd [nM] | SMILES |
| --- | --- |
| > 10000 | Cc1ccc(-n2nc(C(C)(C)C)cc2NC(=O)Nc2cc(C(C)(C)C)on2)cc1 [Compound H11] |
| 1000 to 10000 | Cc1ccc(-n2nc(C(C)(C)C)cc2NC(=O)Nc2ccc(Cl)cc2)cc1 [Compound H14] |
| 1000 to 10000 | CN(Cc1cccc([N+](=O)[O-])c1)C(=O)Nc1cc(C(C)(C)C)on1 [Compound J3] |
| 100 to 1000 | COc1ccc(N(C)C(=O)Nc2cc(C(C)(C)C)on2)cc1 [Compound J10] |
| 1000 to 10000 | CC(C)(C)c1cc(NC(=O)Nc2ccc(OCCN3CCOCC3)c3ccccc23)no1 [Compound K1] |
| 100 to 1000 | CC(C)(C)c1cc(NC(=O)Nc2ccc(NC(=O)c3cccnc3)cc2)no1 [Compound N1] |
| < 100 | CC(C)(C)c1cc(NC(=O)Nc2ccc(NC(=O)c3cn4cc(Cl)ccc4n3)cc2)no1 [Compound N3] |
| 100 to 1000 | Cn1nc(-c2ccccc2)c2cc(C(=O)Nc3ccc(NC(=O)Nc4cc(C(C)(C)C)on4)cc3)sc21 [Compound N5] |
| 1000 to 10000 | CC(C)(C)c1cc(NC(=O)Nc2ccc(NC(=O)c3ncccc3C(N)=O)cc2)no1 [Compound N6] |
| < 100 | CC(C)(C)c1cc(NC(=O)Nc2ccc(NC(=O)c3cc([N+](=O)[O-])ccn3)cc2)no1 [Compound N7] |
| 100 to 1000 | Cn1nc(C(C)(C)C)cc1C(=O)Nc1ccc(NC(=O)Nc2cc(C(C)(C)C)on2)cc1 [Compound N10] |
| > 10000 | Cn1nc(-c2ccccc2)c(C(=O)Cc2ccc(NC(=O)Nc3cc(C(C)(C)C)on3)cc2)c1Cl [Compound N11] |
| 100 to 1000 | COC(=O)c1ccc(C(=O)Nc2ccc(NC(=O)Nc3cc(C(C)(C)C)on3)cc2)nc1 [Compound N12] |
| < 100 | CC(C)(C)c1cc(NC(=O)Nc2ccc(NC(=O)c3ncc[nH]3)cc2)no1 [Compound N13] |
| 100 to 1000 | CC(C)(C)c1cc(NC(=O)Nc2ccc(NC(=O)c3csnn3)cc2)no1 [Compound N14] |
| > 10000 | Cc1nc(C(=O)Nc2ccc(NC(=O)Nc3cc(C(C)(C)C)on3)cc2)nn1-c1cc(Cl)cc(Cl)c1 [Compound N15] |
| 100 to 1000 | CC(C)(C)c1cc(NC(=O)Nc2ccc(NC(=O)c3cc4cc(Br)ccc4s3)cc2)no1 [Compound N17] |
| 1000 to 10000 | Cc1nnsc1C(=O)Nc1ccc(NC(=O)Nc2cc(C(C)(C)C)on2)cc1 [Compound N18] |
| 1000 to 10000 | CC(C)(C)c1cc(NC(=O)Nc2ccc(NC(=O)c3c[nH]c(=O)nc3-c3ccncc3)cc2)no1 [Compound N19] |
| 100 to 1000 | Cn1cc(C(=O)Nc2ccc(NC(=O)Nc3cc(C(C)(C)C)on3)cc2)c(C(F)(F)F)n1 [Compound N20] |
| < 100 | CC(C)(C)c1cc(NC(=O)Nc2ccc(NC(=O)c3cccc4nsnc34)cc2)no1 [Compound N21] |
